Measurements reported in US11932630B2, “Heteroaryl aminopropanol derivatives” (NOVARTIS AG, priority 2021, dated 2024).

What was measured:
[1] = Loss on drying by TGA after storage at 92 % RH; assay type: physicochemical; details: heating rate 10 K/min, % @ °C, temperature in the line below (100, 230, 170, 195 °C)
Procedure: Thermoaravimetric Analysis (TGA):
TGA curves were obtained using a TA-instrument Q5000. 0.5-2 mg of sample was placed into an open aluminum pan. The TGA curve was measured at 10° C./min between 30-300° C. The LoD (Loss of drying) was calculated between 30° C. and 100° C. or 150° C. The weight loss is plotted against the measured sample temperature. Temperatures are reported in degrees Celsius (° C.) and weight loss in %.

Hygroscopicity by DVS = assay type: physicochemical; details: for Hygroscopicity (DVS), moisture / water vapor absorbed: at 95% RH

SMILES | Loss on drying by TGA, After 1 day at 92 % RH ([1]; listed as Ex 44) | Hygroscopicity (DVS), moisture / water vapor absorbed (Hygroscopicity by DVS) | Hygroscopicity (DVS), moisture / water vapor absorbed (Hygroscopicity by DVS; listed as hippuric acid salt (Form B)) | Loss on drying by TGA, After 1 day at 92 % RH ([1]; listed as Ex 42) | Hygroscopicity (DVS), moisture reversibly absorbed (Hygroscopicity by DVS; above 70% RH, transforming into a hydrated form) [%]
N[C@H](CO)Cn1ccc(-c2ccc(Oc3ncc(-c4ccn[nH]4)cc3F)cc2)n1 [Example 44, (S)-2-amino-3-(3-(4-((3-fluoro-5-(1H-pyrazol-3-yl)pyridin-2-yl)oxy)phenyl)-1H-pyrazol-1-yl)propan-1-ol] | 0.21 @ % | 0.32% @ 95% RH | about 0.3% |  | 
N[C@H](CO)Cn1ccc(-c2ccc(Oc3ncc(-c4cc[nH]n4)cc3F)cc2)n1 [Example 42, (S)-2-amino-3-(3-(4-((3-fluoro-5-(1H-pyrazol-3-yl)pyridin-2-yl)oxy)phenyl)-1H-pyrazol-1-yl)propan-1-ol] |  | 2.97 @ 95% |  | 2.46 @ % | 3
